Laboratory results taken from patent US9481636B2, “N-benzylaniline derivative and uses thereof” (Nanjing Medical University, priority 2011, dated 2016).

Key:
[1] = system: neuropathic pain in mice (mechanical stimulus); test: Neuropathic pain model (SNL), mechanical pain threshold (von Frey); type: in vivo; details: for threshold of paw withdrawal response to mechanical stimulus: day 7 after SNL
[2] = system: acute focal cerebral ischemia/reperfusion injury in rats; test: MCAO focal cerebral ischemia/reperfusion injury: infarct area and neurological defect score; type: in vivo; details: 48 h; for cerebral infarct area: MCAO 120 min
Excerpt: Cerebral ischemia injury was induced by middle cerebral artery occlusion (MCAO) reperfusion model. […] The neck skin was incised along median line, and neck muscle tissue was bluntly dissected to expose and carefully isolate the common carotid artery (CCA) on the right side. The concomitant vagus nerve was gently peeled and ligated, and inward and superficial external carotid artery (ECA) was cut off; pterygopalatine artery, outward branch artery near skull base along internal carotid artery (ICA), was isolated and ligated. […] At this point, the blood supply to the middle cerebral arteries (MCA) including carotid artery and ramus communicans before Waldeyer's ring were all blocked. The depth of the inserted line was determined based on the mark. Extravascular part of the line was ligated and fixed to prevent the line from slippage. After rightside cerebral ischemia 120 minutes, the line was carefully unplugged and the broken end was ligated to achieve reperfusion after ischemia. Suturing the skin, and the rats were returned to cage and fed carefully. The body temperature of the animals was maintained constantly at 37±0.5° C. during surgery.
The modified Bederson 5-score method was used for evaluation of neurological defect symptoms. Neurological defect symptoms of rats after cerebral ischemia was evaluated by single-blinded method, i.e., test animals were marked by group by the test designers and testers who graded neurological defect symptoms didn't know the animal grouping, after the grading the testers submitted the grading results with various marks to the designers, and the designers unblinded the grouping to obtain scores for each animal in each test group.
The animals were anesthetized with 10% chloral hydrate 3.5 ml/kg, the brains were taken out after beheading, and olfactory bulb, cerebellum and lower brain stem were removed. Blood on the surface of the brain was washed with normal saline and residual water on the surface was absorbed. The brains were placed at −80° C. for 7 min, and once taken out were sliced at the coronal cross planes vertically to the sight plane with 2 mm intervals between the slices. The brain slices were immersed in a water bath (37° C., 90 min) containing 20 g/L TTC dye freshly prepared with 0.2 mol/L pH 7.4˜7.8 PBS, and normal brain tissues were stained crimson while ischemic brain tissues were pale. After the tissues were washed with normal saline, the brain slices were rapidly aligned in a row from front to back in order, and the surface residual water was absorbed to dry surface, then photographed. Statistics of the pictures were carried on using image analysis software, and ischemic area (white area) and total area on the right side were delineated. The percentage of cerebral infarct area was calculated using the following formula.
Neurological deficit symptoms were evaluated 48 h after the cerebral ischemia, then the animals were sacrificed and the brains were taken out, TTC stained, and infarct areas of the stained brain slices were measured.
The rats were under MCAO for 120 min, and 1 h after reperfusion the rats were injected through tail vein with ZL006-06, ZL006-16, ZL006-28, ZL006-30, ZL006-43, ZL006-82 or an equivalent volume of solvent, wherein the doses of each drug were 1.5 mg/kg, and the volume of injected drugs was 0.1 ml/100 g weight. Neurological deficit symptoms were evaluated 48 h after the cerebral ischemia, then the animals were sacrificed and the brains were taken out, TTC stained, and infarct areas of the stained brain slices were measured.

[3] = system: OGD-injuried neurons (primary cortical neurons); test: Cell viability assay: LDH release by OGD-injured primary cortical neurons; type: cell-based, mice; details: drug concentration 10^−6 M/L, OGD 2 hours, LDH after 8 hours
Procedure: After primary neurons were cultured for 9 days, the medium was replaced by DMEM high glucose medium containing 1% FBS, serum-starved overnight and then washed twice with OGD culture solution. This OGD culture solution contains DMEM medium, 1% FBS, 1% penicillin/streptomycin and B27, and contains no sugar. Then, the primary neurons were incubated with the test drugs for 30 minutes, OGD culture solution was added into an anaerobic tank and oxygen-deprived for 2 hours. The OGD culture solution was discarded, and replaced by oxygen-saturated DMEM medium containing 1% FBS, 1% penicillin/streptomycin and B27. After 8 hours the culture solution was collected to measure LDH level.
After the primary cortical neurons were treated with various processes, neuronal culture solution in six-well plates was pipetted to a 1.5 mL plastic centrifuge tube; cells were washed three times with PBS solution and each well was added PBS 1000 μl. The cells were freezed and thawed repeated for three times, centrifuged at 12000′ g for 5 minutes at 4° C., and the supernatant was removed for use. The activity of LDH enzyme was determined with 50 μl culture solution and 25 μl supernatant using lactate dehydrogenase kit.
Protective Effects of the Objective Compounds Against Primary Cortical Neuronal Injury Cultured In Vitro (See Table 2)

[4] = system: NMDAR-mediated pathological NO release; details: Nature Medicine 2010, 16, 1439-1443; cited from earlier work
[5] = system: middle cerebral artery occlusion (MCAO) and reperfusion; details: Nature Medicine 2010; cited from earlier work
[6] = system: learning and memory impairment, behavioral abnormalities; details: in vivo; cited from earlier work
[7] = system: glutamate-induced neuronal injury; details: Nature Medicine 2010, 16, 1439-1443; cited from earlier work
[8] = system: neuropathic pain in mice (thermal radiation stimulus); test: Neuropathic pain model (SNL), thermal pain threshold
Procedure: Neuropathic pain model was prepared by segmental spinal nerve ligation (SNL). The mice were anesthetized by intraperitoneal injection of 2% chloral hydrate (0.2 mL/10 g), after the loss of righting reflex, the mice were fixed in the prone position. The model was prepared by the method of Kim and Chung: a median skin incision with about 3-5 cm length in L4-S2 level of the mouse back was bluntly dissected, the muscles next to the vertebrae till the sixth lumbar protruding were separated, the L5/L6 joint protruding on the right side was exposed and excised, and L6 processes transverses was partially splitted so that the L4-L6 spinal nerves on the right side were exposed. L5 nerve was gently isolated and tightly ligated with 5-0 silk thread. Then the incision was sutured layer by layer, the skin was disinfected with povidone iodine, and the mice were continued to be raised. Postoperative gait deformity appeared in the animals, and in addition to mild valgus and toes were held together in surgery side hind limb, there was no other abnormal change.
When measuring paw withdrawal threshold (PWT) responding to thermal stimulus, the latency of paw withdrawal response was determined using pain measurement system of plantar thermal stimulus (UGO BASILE, Italy) which was commercially available. The mice were placed in a small plastic chamber located above a glass platform. The temperature of glass platform was controlled at 22° C. Animals' planta were stimulated with infrared radiator. To prevent tissue damage, the stimulated duration was limited within 30 seconds. If the stimulation time overran, the infrared radiator was automatically turned off. The pain threshold is represented by the time from starting stimulation to the foot removing from the glass platform. To ensure the consistency of the experiment, the sites of the animals receiving the thermal stimulus all located in the center of the hind planta.
When the drug was administrated by gavage, the objective compounds milled into a fine powder were suspended with water and sodium carboxymethyl cellulose, wherein the amount of sodium carboxymethyl cellulose was 1%. After the suspension, the objective compounds should be suspended homogeneously in the liquid, and no granular objects would settle or flocculently suspend in the liquid.
SNL surgery was conducted on the mice whose baseline of threshold for 50% paw withdrawal response to mechanical stimulus was determined. […] Latencies of thermal pain responses were measured 0.5, 1, 2, 4, 6, 8, 10, 12 and 24 hours after administration.

nNOS-PSD-95 coupling = nNOS-PSD-95 coupling (Mus musculus, UniProt Q9Z0J4); details: FIG. 1
Procedure: Neonatal mice within 24 h were disinfected successively with benzalkonium bromide solution and 75% ethanol, followed by the disinfection to head skin with povidone-iodine. The head was fixed by clamping the neck skin by left hand, while the skull was cut open with an ophthalmic tweezer by right hand, exposing two cerebral hemispheres. The two pieces of cerebral cortex was placed in Petri dishes containing D-Hank's solution; the meninges was removed. The prepared cerebral cortex was added into a 5 ml small beaker, cut into small pieces of tissue less than 1 mm^3 using ophthalmic scissors and the pieces of tissue were transferred to a 50 ml conical flask. The well-incubated 0.125% Trypsin solution was added into a 20 ml conical flask and mixed thoroughly. After the digestion for 10 min in an incubator (37° C.), the suspension was gently pipetted with a pipette until the absence of tissue pieces. The cell suspension was transferred to a 200-mesh sieve to filter, and the enzyme reaction of the filtrate was terminated by DMEM/F12 (1:1) medium containing 10% FBS. The filtrate was centrifuged (2500 rp, 3 min) and the supernatant was removed. […]

[9] = system: inflammatory pain in mice (thermal radiation stimulus)
Procedure: (§1) Meller method was employed. Skin around the […] planta was disinfect with 75% ethanol, and 10 μl Complete Freund's adjuvant (CFA) was injected subcutaneously in planta of right hind limb. The planta was gently pressed with a dry cotton ball after the injection to avoid liquid spill along the pinhole. Mice would usually return to normal within a few minutes. CFA-induced inflammatory pain is a widely used chronic pain model.
Animals' planta were stimulated with infrared radiator.
CFA was injected in the planta of the mice whose latency baseline of thermal pain paw response was determined to induce inflammatory pain. […] Latencies of paw withdraw response to thermal pain were measured 0.5, 1, 4, 8, 10 and 24 hours after administration.

[10] = system: inflammatory pain in mice (mechanical stimulus)
Procedure: as §1

[11] = intragastric 40 mg/kg, SNL, mechanical
[12] = tail vein 1.5 mg/kg 1 h after reperfusion, FIG. 8
[13] = 60 and 90 mg/kg groups, at peak time points of efficacy
[14] = gavage, SNL, mechanical stimulus
[15] = gavage 50 mg/kg, CFA, mechanical

nNOS-PSD-95 coupling, sequence (Q9Z0J4 whole entry): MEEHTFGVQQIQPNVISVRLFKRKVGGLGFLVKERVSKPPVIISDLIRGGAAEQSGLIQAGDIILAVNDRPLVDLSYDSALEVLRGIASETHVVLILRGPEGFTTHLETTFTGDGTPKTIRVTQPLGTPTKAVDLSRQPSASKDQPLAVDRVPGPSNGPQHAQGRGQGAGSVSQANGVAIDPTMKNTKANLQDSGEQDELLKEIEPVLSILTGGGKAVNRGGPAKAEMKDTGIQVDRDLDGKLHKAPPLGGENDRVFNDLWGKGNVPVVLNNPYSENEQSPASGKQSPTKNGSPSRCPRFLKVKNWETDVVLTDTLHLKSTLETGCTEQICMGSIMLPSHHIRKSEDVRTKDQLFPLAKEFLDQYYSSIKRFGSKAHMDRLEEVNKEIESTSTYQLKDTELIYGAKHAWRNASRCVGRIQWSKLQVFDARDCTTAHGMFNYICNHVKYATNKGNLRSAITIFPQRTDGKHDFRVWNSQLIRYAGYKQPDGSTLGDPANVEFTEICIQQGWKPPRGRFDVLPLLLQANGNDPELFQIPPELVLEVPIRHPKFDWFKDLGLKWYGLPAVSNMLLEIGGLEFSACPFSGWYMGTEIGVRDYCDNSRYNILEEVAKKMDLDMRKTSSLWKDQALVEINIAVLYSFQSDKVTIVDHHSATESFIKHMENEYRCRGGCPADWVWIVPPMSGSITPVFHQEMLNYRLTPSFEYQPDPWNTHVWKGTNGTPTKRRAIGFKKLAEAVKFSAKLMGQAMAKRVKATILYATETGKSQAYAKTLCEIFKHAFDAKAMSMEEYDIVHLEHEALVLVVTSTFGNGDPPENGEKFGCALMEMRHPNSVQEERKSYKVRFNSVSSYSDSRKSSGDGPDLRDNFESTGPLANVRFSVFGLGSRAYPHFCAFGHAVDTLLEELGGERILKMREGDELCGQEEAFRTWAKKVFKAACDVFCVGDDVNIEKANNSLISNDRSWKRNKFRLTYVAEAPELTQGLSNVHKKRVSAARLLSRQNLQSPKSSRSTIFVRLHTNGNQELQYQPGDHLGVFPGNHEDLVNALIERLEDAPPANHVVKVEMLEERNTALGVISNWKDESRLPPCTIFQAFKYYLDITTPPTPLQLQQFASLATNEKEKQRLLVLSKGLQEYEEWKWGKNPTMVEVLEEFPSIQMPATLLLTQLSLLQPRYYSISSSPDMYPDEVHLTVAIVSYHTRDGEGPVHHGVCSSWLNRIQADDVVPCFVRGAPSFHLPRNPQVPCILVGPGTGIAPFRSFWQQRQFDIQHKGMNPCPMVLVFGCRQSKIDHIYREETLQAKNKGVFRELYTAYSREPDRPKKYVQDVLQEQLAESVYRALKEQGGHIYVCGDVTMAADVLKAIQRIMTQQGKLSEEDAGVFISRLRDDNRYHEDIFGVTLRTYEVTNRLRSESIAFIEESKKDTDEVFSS

SMILES: CC(=O)Oc1cc(NCc2cc(Cl)cc(Cl)c2O)ccc1C(=O)OC1CC2CCC1(C)C2(C)C (stereo not shown) [ZL006-06, bornyl-2-acetyloxy-4-(2-hydroxy-3,5-dichlorobenzyl) aminobenzoate]
- efficacy duration of a single dose [1, 11]: about 6 hours
- time after administration at which significant efficacy was shown [1, 11]: 0.5 h
- threshold of paw withdrawal response to mechanical stimulus ([1]; intragastric 40 mg/kg, FIG. 6): significantly increased
- neurological defect symptoms [2, 12]: significantly alleviated
- cerebral infarct area [2, 12]: significantly reduced
- Inhibition of LDH release (%) [3]: 55.8%

SMILES: CC(=O)Oc1cc(NCc2cc(Br)cc(Cl)c2O)ccc1C(=O)OC1CC2CCC1(C)C2(C)C (stereo not shown) [ZL006-43, bornyl-2-acetyloxy-4-(2-hydroxy-3-chloro-5-bromobenzyl) aminobenzoate]
- efficacy duration of a single dose [1, 11]: about 6 hours
- time after administration at which significant efficacy was shown [1, 11]: 0.5 h
- threshold of paw withdrawal response to mechanical stimulus ([1]; intragastric 40 mg/kg, FIG. 6): significantly increased
- neurological defect symptoms [2, 12]: significantly alleviated
- cerebral infarct area [2, 12]: significantly reduced
- Inhibition of LDH release (%) [3]: 68.9%

SMILES: COC(=O)c1ccc(N(Cc2cc(Br)cc(Cl)c2O)C(C)=O)cc1OC(C)=O [ZL006-82, methyl 2-acetyloxy-4-[N-(2-hydroxy-3-chloro-5-bromobenzyl)-N-acetyl]aminobenzoate]
- efficacy duration of a single dose [1, 11]: about 6 hours
- time after administration at which significant efficacy was shown [1, 11]: 0.5 h
- threshold of paw withdrawal response to mechanical stimulus ([1]; intragastric 40 mg/kg, FIG. 6): significantly increased
- neurological defect symptoms [2, 12]: significantly alleviated
- cerebral infarct area [2, 12]: significantly reduced
- Inhibition of LDH release (%) [3]: 61.2%

SMILES: CC(=O)N(Cc1cc(Cl)cc(Cl)c1O)c1ccc(C(=O)OC2CC3CCC2(C)C3(C)C)c(O)c1 (stereo not shown) [ZL006-28, bornyl-2-hydroxy-4-[N-(2-hydroxy-3,5-dichlorobenzyl)-N-acetyl]aminobenzoate]
- efficacy duration of a single dose [1, 11]: about 6 hours
- time after administration at which significant efficacy was shown [1, 11]: 0.5 h
- threshold of paw withdrawal response to mechanical stimulus ([1]; intragastric 40 mg/kg, FIG. 6): significantly increased
- neurological defect symptoms [2, 12]: significantly alleviated
- cerebral infarct area [2, 12]: significantly reduced
- Inhibition of LDH release (%) [3]: 61.6%

SMILES: O=C(O)c1ccc(NCc2cc(Cl)cc(Cl)c2O)cc1O [ZL006, 4-N-(2-hydroxy-3,5-dichlorobenzyl) aminosalicylic acid]
- NMDAR-mediated pathological NO release [4]: reduce
- animal neurological deficits [5]: improve
- infarct volume [5]: reduce
- learning and memory impairment, behavioral abnormalities and other side effects [6]: does not cause
- neuroprotective effect against glutamate-induced neuronal injury [7]: significant neuroprotective effect

SMILES: CC1(C)C2CCC1(C)C(OC(=O)c1cc(Cl)c(NCc3cc(Cl)cc(Cl)c3O)cc1O)C2 (stereo not shown) [ZL006-16, bornyl-2-hydroxy-4-(2-hydroxy-3,5-dichlorobenzyl)amino-5-chlorobenzoate]
- efficacy duration of a single dose [1, 11]: about 6 hours
- time after administration at which significant efficacy was shown [1, 11]: 0.5 h
- threshold of paw withdrawal response to mechanical stimulus ([1]; intragastric 40 mg/kg, FIG. 6): significantly increased
- neurological defect symptoms [2, 12]: significantly alleviated
- cerebral infarct area [2, 12]: significantly reduced
- inhibition at 1 µM ([3]; Mus musculus, Primary cortical neuron): 60.3%

SMILES: CC1(C)C2CCC1(C)C(OC(=O)c1ccc(NCc3cc(Cl)cc(Cl)c3O)cc1O)C2 (stereo not shown) [ZL006-05, bornyl-2-hydroxy-4-(2-hydroxy-3,5-dichlorobenzyl) aminobenzoate]
- AUC of latency-time curve relative to control group ([8]; 60 mg/kg group, 10 h after administration, FIG. 3B): about two
- latency relative to control group [8, 13]: about 2.5 times
- latency of paw withdrawal response to thermal pain ([8]; gavage 10, 30, 60 and 90 mg/kg, day 7 after SNL, dose dependent, FIG. 3A): significantly increased
- dose that showed significant efficacy ([8]; gavage, SNL, thermal pain): 10 mg/kg
- efficacy duration of a single dose ([8]; gavage, SNL, thermal pain): about 8 hours
- time to show efficacy after administration ([8]; gavage, SNL, thermal pain): less than 0.5 h
- glutamate-induced coupling of nNOS and PSD-95 (nNOS-PSD-95 coupling; 10 μM, 50 μM glutamate and 30 μM glycine 30 minutes): significantly inhibited
- nNOS-PSD-95 coupling in normal cultured neurons (nNOS-PSD-95 coupling; normal cultured neurons, no glutamate): didn't affect
- area under the curve relative to control group ([9]; 50 mg/kg, within 10 h after administration, FIG. 5C): approximately 2 times
- duration of significant analgesic effect of a single dose ([9]; gavage 50 mg/kg, CFA, thermal): about 10 hours
- time after administration at which significant efficacy was shown ([9]; gavage 50 mg/kg, CFA, thermal): 1 h
- latencies of paw withdraw response to thermal pain ([9]; gavage 50 mg/kg, CFA, FIG. 5B): significantly prolonged
- AUC of threshold-time curve relative to control group ([1]; 90 mg/kg group, 12 h after administration, FIG. 2B): about six
- pain threshold relative to control group [1, 13]: about 20 times
- threshold of paw withdrawal response to mechanical stimulus ([1]; gavage 10, 30, 60 and 90 mg/kg, dose dependent, FIG. 2A): significantly increased
- dose that showed significant efficacy [1, 14]: 10 mg/kg
- efficacy duration of a single dose [1, 14]: about 8 hours
- peak time of efficacy after administration [1, 14]: 2 h
- time to show efficacy after administration [1, 14]: less than 0.5 h
- neurological defect symptoms ([2]; tail vein 0.75, 1.5 and 3 mg/kg 1 h after reperfusion, FIG. 7): significantly alleviated
- cerebral infarct area ([2]; tail vein 0.75, 1.5 and 3 mg/kg 1 h after reperfusion, dose-dependent, FIG. 7): significantly reduced
- Inhibition of LDH release (%) [3]: 62.4%
- area under the curve of threshold relative to control group ([10]; 50 mg/kg, within 10 h after administration, FIG. 4C): approximately 4 times
- efficacy duration of a single dose [10, 15]: about 6 hours
- time after administration at which significant efficacy was shown [10, 15]: 1 h
- threshold of paw withdrawal response to mechanical stimulus ([10]; gavage 50 mg/kg, CFA, FIG. 4B): significantly increased

SMILES: CC(=O)Oc1cc(N(C)Cc2cc(Cl)cc(Cl)c2O)ccc1C(=O)OC1CC2CCC1(C)C2(C)C (stereo not shown) [ZL006-30, bornyl-2-acetyloxy-4-[N-(2-hydroxy-3,5-dichlorobenzyl)-N-methyl]aminobenzoate]
- efficacy duration of a single dose [1, 11]: about 6 hours
- time after administration at which significant efficacy was shown [1, 11]: 0.5 h
- threshold of paw withdrawal response to mechanical stimulus ([1]; intragastric 40 mg/kg, FIG. 6): significantly increased
- neurological defect symptoms [2, 12]: significantly alleviated
- cerebral infarct area [2, 12]: significantly reduced
- Inhibition of LDH release (%) [3]: 65.9%
